From US6716597B2, “Methods and products for regulating cell motility” (priority 2000, dated 2004)

System: Rat2 fibroblasts
Test: Time-lapse videomicroscopy random migration assay (cell speed, polarity)
Assay type: cell-based, rat
Details: Rat2 cells
Description: Cells adapted to microscopy media (Life Technologies, Rockville, Md.) as described above were trypsinized, counted, and resuspended in microscopy media at 7.14×10^3 cells/mL. 1.4 mL (10,000 cells) of this cell suspension was added to a ΔT dish (Bioptechs Inc., Butler, Pa.) that had previously been coated overnight with 10 μg/mL fibronectin (Becton Dickinson) at 4° C. and then blocked with lmg/mL cell-culture-grade BSA (Sigma, St. Louis, Mo.). Cells were allowed to attach and spread for 1 hour at 37° C. before movies were initiated. 10x phase contrast movies were 4.5 hours long with a frame taken every five minutes. A custom time-lapse collection script written in IPLabs was used to automate microscope and camera function. Light was shutter controlled. […] Cell paths were generated from the calculated centroid positions and parameters (speed and membrane flow) were calculated from the resulting path file. Speed was calculated using the Central Difference Method in DIAS, which is equivalent to a root mean squared calculation. […]
Rat 2 cells were exposed to 0, 5 nM, 25 nM, 50 nM, or 500 nM cytochalasin D and motility was measured. One set of cells received no cytochalasin D. Other cells received a low dose of cytochalasin D (e.g. 5 nM or 25 nM) or a high dose of cytochalasin D. (e.g. 500 nM) The motility of the treated cells was assessed using the motility assay described above.

In the case of `C=C1[C@@H](C)[C@H]2[C@H](Cc3ccccc3)NC(=O)[C@]23[C@H](OC(C)=O)/C=C/[C@@](C)(O)C(=O)[C@@H](C)C/C=C/[C@H]3[C@@H]1O` [cytochalasin D, reference compound], the cell speed (25 nM (low dose)) is reported as “increased” and the cell speed (500 nM (high dose)) is reported as “decreased”.
